# US20160082133A1, “CHEMICAL EXCHANGE SATURATION TRANSFER (CEST) BASED MRI USING REPORTER GENES AND SUBSTRATES AND METHODS THEREOF” (The Johns Hopkins University, priority 2013, published 2016)
# Several values for one entry are separate records, joined by “and”; a condition that tells them apart may be missing. Equal values may be shown once.
# Assays:
# [1] = In vitro CEST-MRI of thymidine analogues at 11.7 T; format: physicochemical; details: pH 7.4, 37° C.; for MTRasym (8.5 Hz) / MTRasym (170 Hz) / MTRasym (213 Hz): at 5 ppm for 20 nM agent (so in the source); for MTRasym (128 Hz): at 5 ppm for 20 mM agent
# Procedure: All compounds were dissolved at a concentration of 20 mM in phosphate-buffered saline (PBS) (pH=7.4) and placed in microcapillaries, as described previously.^17 CESTMRI experiments were performed on a vertical 11.7 T scanner (Bruker Avance system) at 37° C. A modified RARE sequence (TR/TE=10 000/9.4 ms; RARE factor=16; 1 mm slice thickness; FOV=11×11 mm^2; matrix size=64×32; resolution=0.17×0.34 mm^2; and NA=2) including a magnetization transfer (MT) module ([…]) was used to acquire CEST-weighted images from −8 to +8 ppm with increments of 0.2 ppm around the water resonance, which was assigned to be at 0 ppm. Pixel-based B0 correction was used as described before using the same parameters as above except for TR=1500 ms and B1/tsat=21 Hz/500 ms, with a sweep range from −2 to +2 ppm (0.1 ppm steps). Data processing was performed using custom-written scripts in MATLAB (Mathworks). Mean CEST spectra were plotted from an ROI for each sample, after B0 correction. MTRasym=100×(S^−Aω−S^AωA/^‘−’0)/3 was computed at different offsets Aω.
# [2] = CEST MRI of CDase substrates and products at 9.4 T; format: physicochemical; details: pH 7.4, 37° C.
# Text: All MR images were acquired with a 9.4T Bruker Avance system equipped with a 15 mm sawtooth RF coil. A modified RARE sequence (TR=6.0 sec, effective TE=43.2 ms, RARE factor=16, slice thickness=0.7 mm, FOV=14×14 mm, matrix size=128×64, resolution=0.11×0.22 mm^2, and NA=2) including a magnetization transfer (MT) module (one CW pulse, B=[…] (150 Hz), 3 sec) was used to acquire CEST-weighted images from −6 ppm to 6 ppm (step=0.2 ppm) around the water resonance (0 ppm). The absolute water resonant frequency shift was measured using a Water Saturation Shift Reference (WASSR) (Kim, M. et al. Magnetic Resonance in Medicine 2009, 61, 1441) method modified (Liu, G. et al. Contrast Media Mol Imaging 2010, 5, 162) with Lorentzian analysis. […]
# Data processing was performed using custom-written scripts in MATLAB (Mathworks, Waltham, Mass.). CEST spectra were calculated from the mean of an ROI placed over each sample after B0 correction of the contrast on a per voxel basis. The CEST signal was quantified using MTRasym at specific offsets of interest (i.e., &ω=+2 ppm for cytosine or +2.4 ppm for 5FC) using the definition: MTRasym=(S^−˜ω−S^+″ω)/S0, where and s[−˜ω, +Aω] is the water signal intensity in the presence of a saturation pulse at offsets ±Aω, and S0 is water signal intensity in the absence of a saturation pulse.
# [3] = Quantification of exchange rates (QUESP, Bloch equation fitting); format: physicochemical; details: 11.7 T, pH 7.4, 37° C.; for kex, quantified exchange rates of imino and water protons: 5 ppm for 1-3, 6 ppm for dT
# Procedure: Exchange rates were quantified with the saturation power dependent CEST approach (QUESP) and Bloch equation fitting (McMahon et al., Magn. Res. Med. 2006, 55, 836). For each sample, the MTRasym was measured at the imino resonance frequency for CEST saturation fields of 43, 85, 128, 170, 213, 255, 340, and 426 Hz while the saturation pulse duration was kept constant at 4000 ms. The Bloch equations were then fit numerically to these MTRasym values using MATLAB (Mathworks), and the exchange rates (kex, s^−1) were determined from the fits. Errors (95% confidence limits) were estimated using the F statistic.
# [4] = tested on: HEK293; experiment: CEST MRI of HEK293 cells expressing hPRM1 (lysate and encapsulated live cells); format: cell-based, Human
# Procedure: CEST experiments were performed on an 11.7T Bruker Avance system, as previously described. A modified RARE (TR/TE=6000/9.4 ms), including a magnetization transfer module (B1=4.7 μT/4000 ms), was used to acquire CEST-weighted images. The absolute water resonant frequency shift was measured using a modified WASSR method, with the same parameters as in CEST imaging, except for TR=1.5 sec and a saturation pulse of B1=0.5 μT/250 ms, which was used for B0 correction for each voxel using MatLab. MTR asymmetry (MTRasym)=100×(S−Δω−S+Δω)/S0 was computed at different offsets, Δω. Human Embryonic Kidney cells (HEK293), were engineered to express the gene encoding to hPRM1 (NM_002761; 293^hPRM1). Non-expressing wild type cells (293^wt) were used as controls. The cells were lysed or encapsulated in alginate-based microcapsules using Ba^2+ ions as the gelating cation (Barnett, B. P., et al. Nat Protoc 6, 1142-1151 (2011)).
# [5] = tested on: 293^HSV1-tk cells; experiment: Cell viability assay (CellTiter-Blue); format: cell-based, human; details: 0.5 mg/ml
# Procedure: Cell viability assay was performed using CellTiter-Blue® Cell Viability Assay (Promega), which provides a fluorometric method for estimating the number of viable cells present in 96 well plate. HEK293FT cells transduced with the HSV1-tk (293^HSV1-tk) were plated in 96 well-plate (10,000 cells/well). Cells were incubated for a periods of 4 hours and 24 hours in the presence of ganciclovir (GCV, 0.5 mg/ml in cell medium), compound 2 (0.5 mg/ml in cell medium) and medium (as control). CellTiter-Blue® Reagent was added (20 μl/well) and plate was incubated for 3 hours at 37° C. Finally, fluorescence 560/590 nm was recorded and values obtained from probe containing wells (GCV or 2, N=4) were normalized to values of non-treated cells (control wells) to determine the % of viable cells after the incubation period.
compound,measurement,setting,value
"O=c1[nH]c(=O)n([C@H]2C[C@H](O)[C@@H](CO)O2)cc1Cl [Compound 4, 5-chloro-2′-deoxyuridine]",CEST contrast from the imino proton,[1],No CEST contrast was observed
O=c1cc[nH]c(=O)[nH]1 [uracil],MTRasym (CEST contrast),[2],only limited and non-frequency-specific MTRasym
"Cc1cn([C@H]2C[C@H](O)[C@@H](CO)O2)c(=O)[nH]c1=O [dT, Thymidine, reference compound]",MTRasym (8.5 Hz),[1],2%
same,MTRasym (170 Hz),[1],10%
same,MTRasym (213 Hz),[1],15%
same,MTRasym (128 Hz),[1],5%
same,kex of the imino proton,[3],3.7±0.2×10^3 s^−1
same,"kex, quantified exchange rates of imino and water protons",[3],5.1 ± 0.7 ×10^3 s^−1
"O=c1[nH]cc(F)c(=O)[nH]1 [5FU, 5-fluorouracil]",MTRasym (CEST contrast),[2],only limited and non-frequency-specific MTRasym
"CC1(O)C(=O)NC(=O)N([C@H]2C[C@H](O)[C@@H](CO)O2)C1O (stereo partly shown) [Compound 3, thymidine glycol]",MTRasym (8.5 Hz),[1],3%
same,MTRasym (170 Hz),[1],11%
same,MTRasym (213 Hz),[1],16%
same,MTRasym (128 Hz),[1],7%
same,kex of the imino proton,[3],3.7±0.2×10^3 s^−1 and 5.1±0.7×10^3 s^−1
same,"kex, quantified exchange rates of imino and water protons",[3],3.8 ± 0.2 ×10^3 s^−1
"hPRM1: arginine-rich protein human protamine-1 (NM_002761) expressed as CEST reporter (ARYRCCRSQSRSRYYRQRQRSRRRRRRSCQTRRRAMRCCRPRYRPRCRRH; UniProt P04553 2-51, looked up)",CEST contrast of encapsulated live cells compared to non-expressing wild type cells,"[4]; alginate microcapsules, 1.3 ppm and 3.6 ppm offsets",higher
same,CEST contrast of 293^hPRM1 lysate compared to wild type lysate,[4]; cell lysate,significantly higher CEST contrast
"Nc1nc(O)c2ncn(COC(CO)CO)c2n1 [GCV, ganciclovir, reference compound]",toxic effect on 293^HSV1-tk cells,[5]; 4 and 24 hours,cytotoxic effect
same,cells killed,"[5]; 24 hour, 293^HSV1-tk",about 50%
